Data on eight compounds can be found in ChEMBL document CHEMBL1127244, “Alternative strategies towards the identification of chemical lead compounds by rational design” (Bioorg Med Chem Lett, 1994).

Assay [1] deals with T1, Substance-K receptor (Mesocricetus auratus, UniProt P51144).
T1 sequence (P51144 whole entry): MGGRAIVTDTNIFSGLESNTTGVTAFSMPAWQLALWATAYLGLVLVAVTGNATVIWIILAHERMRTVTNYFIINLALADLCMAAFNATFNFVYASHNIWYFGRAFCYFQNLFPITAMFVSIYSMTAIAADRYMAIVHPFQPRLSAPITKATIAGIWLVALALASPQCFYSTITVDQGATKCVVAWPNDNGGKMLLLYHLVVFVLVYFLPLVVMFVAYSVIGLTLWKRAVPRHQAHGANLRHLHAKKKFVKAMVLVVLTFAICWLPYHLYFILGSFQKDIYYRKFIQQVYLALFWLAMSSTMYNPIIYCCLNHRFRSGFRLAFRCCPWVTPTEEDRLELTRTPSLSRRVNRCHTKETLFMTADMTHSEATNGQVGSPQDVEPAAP
As to the kind of experiment: Binding affinity towards Tachykinin receptor 2 in hamster urinary bladder using [125I]-Neurokinin A as radioligand; Inactive (>>10 uM). The format is tissue-based.

Assay [2] deals with T2, Neuromedin-K receptor (Cavia porcellus, UniProt P30098).
T2 sequence (P30098 whole entry): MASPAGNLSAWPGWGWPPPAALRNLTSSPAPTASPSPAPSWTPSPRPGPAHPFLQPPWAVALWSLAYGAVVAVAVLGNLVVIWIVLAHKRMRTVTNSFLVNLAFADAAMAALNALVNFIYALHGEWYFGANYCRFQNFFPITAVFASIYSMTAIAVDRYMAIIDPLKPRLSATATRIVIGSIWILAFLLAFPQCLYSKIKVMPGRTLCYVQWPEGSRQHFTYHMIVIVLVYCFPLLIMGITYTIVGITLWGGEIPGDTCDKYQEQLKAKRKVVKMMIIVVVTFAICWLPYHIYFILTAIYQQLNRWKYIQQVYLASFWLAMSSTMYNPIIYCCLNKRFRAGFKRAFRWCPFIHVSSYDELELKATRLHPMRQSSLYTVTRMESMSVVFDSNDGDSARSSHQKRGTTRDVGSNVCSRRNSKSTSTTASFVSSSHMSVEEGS
The experiment in a line: Binding affinity towards Tachykinin receptor 3 in guinea pig cerebral cortex using [3H]senktide as radioligand; Value ranges from 8.2-9.4 uM. The format is tissue-based.

For assay [3], the target named is T3, Substance-P receptor (Cavia porcellus, UniProt P30547). The experiment in a line: Binding affinity towards NK-1 receptor in guinea pig cerebral cortex using [125I]Bolton-Hunter substance P as radioligand; Inactive (>>10 uM). The format is tissue-based.
T3 sequence (P30547 whole entry): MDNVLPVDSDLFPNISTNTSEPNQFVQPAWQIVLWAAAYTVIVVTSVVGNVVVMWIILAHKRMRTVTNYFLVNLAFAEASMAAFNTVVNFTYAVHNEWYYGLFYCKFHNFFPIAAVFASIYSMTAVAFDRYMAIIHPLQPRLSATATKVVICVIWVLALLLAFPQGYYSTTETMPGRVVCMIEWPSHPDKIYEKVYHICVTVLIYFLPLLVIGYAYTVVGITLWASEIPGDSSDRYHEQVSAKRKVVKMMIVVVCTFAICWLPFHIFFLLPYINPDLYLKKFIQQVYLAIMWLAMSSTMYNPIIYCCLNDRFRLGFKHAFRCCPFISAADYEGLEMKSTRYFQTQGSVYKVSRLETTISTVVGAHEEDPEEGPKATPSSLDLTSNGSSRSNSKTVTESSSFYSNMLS
Assay [4] addresses T1, Substance-K receptor. As to the kind of experiment: Binding affinity towards Tachykinin receptor 2 in hamster urinary bladder using [125I]neurokinin A as radioligand; Value ranges from 2.6-11 uM.
Assay [5] has as its target T2, Neuromedin-K receptor. As to the kind of experiment: Binding affinity towards Tachykinin receptor 3 in guinea pig cerebral cortex using [3H]senktide as radioligand; Inactive (>>10 uM). Type of assay: tissue-based.
The target in assay [6] is T4, Cholecystokinin receptor type A (Rattus norvegicus, UniProt P30551).
T4 sequence (P30551 whole entry): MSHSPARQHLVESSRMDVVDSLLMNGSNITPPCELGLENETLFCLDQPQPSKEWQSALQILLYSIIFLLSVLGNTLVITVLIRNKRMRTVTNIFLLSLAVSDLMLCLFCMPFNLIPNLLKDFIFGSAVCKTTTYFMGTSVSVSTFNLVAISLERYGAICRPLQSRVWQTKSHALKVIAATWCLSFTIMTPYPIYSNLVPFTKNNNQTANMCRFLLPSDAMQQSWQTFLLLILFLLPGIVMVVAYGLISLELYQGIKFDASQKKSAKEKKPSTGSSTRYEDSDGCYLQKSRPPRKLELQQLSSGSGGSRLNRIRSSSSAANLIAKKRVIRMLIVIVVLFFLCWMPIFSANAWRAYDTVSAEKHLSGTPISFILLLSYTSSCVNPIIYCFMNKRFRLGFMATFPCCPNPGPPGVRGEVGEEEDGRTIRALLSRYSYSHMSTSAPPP
As to the kind of experiment: Binding affinity towards CCK-A receptor in rat pancreas using [125I]Bolton-Hunter CCK-8 as radioligand; Value ranges from 4.1-6.4 uM. The format is tissue-based.

Assay [7] concerns the target T5, Gastrin/cholecystokinin type B receptor (Mus musculus, UniProt P56481).
T5 sequence (P56481 whole entry): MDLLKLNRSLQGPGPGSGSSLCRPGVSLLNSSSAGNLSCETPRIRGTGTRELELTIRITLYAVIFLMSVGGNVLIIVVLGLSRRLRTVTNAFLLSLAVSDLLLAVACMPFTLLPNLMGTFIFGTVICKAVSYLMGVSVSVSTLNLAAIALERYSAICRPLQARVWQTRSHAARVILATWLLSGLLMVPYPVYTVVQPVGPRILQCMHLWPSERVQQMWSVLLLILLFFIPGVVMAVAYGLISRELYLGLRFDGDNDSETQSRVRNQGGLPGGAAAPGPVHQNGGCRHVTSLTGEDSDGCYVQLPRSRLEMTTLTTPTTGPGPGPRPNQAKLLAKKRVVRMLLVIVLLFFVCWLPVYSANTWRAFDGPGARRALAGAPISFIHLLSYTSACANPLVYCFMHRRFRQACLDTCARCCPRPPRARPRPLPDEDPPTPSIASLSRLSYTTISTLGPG
As to the kind of experiment: Binding affinity towards CCK-B receptor in mouse cerebral cortex using [125I]Bolton-Hunter CCK-8 as radioligand; Inactive (>>10 uM). Type of assay: tissue-based.

The target of assay [8] is T3, Substance-P receptor. The experiment in a line: Binding affinity towards NK-1 receptor in guinea pig cerebral cortex using [125I]-Bolton-Hunter substance P as radioligand; Value ranges from 7.3-8.8 uM. The format is tissue-based.
In assay [9] the target is T4, Cholecystokinin receptor type A. The experiment in a line: Binding affinity towards CCK-A receptor in rat pancreas using [125I]Bolton-Hunter CCK-8 as radioligand; Value ranges from 11-16 uM. Type of assay: tissue-based.
Assay [10] shares this target. As to the kind of experiment: Binding affinity towards CCK-A receptor in rat pancreas using [125I]Bolton-Hunter CCK-8 as radioligand; Value ranges from 12-20 uM. The format is tissue-based.
The target in assay [11] is T1, Substance-K receptor. The experiment in a line: Binding affinity towards Tachykinin receptor 2 in hamster urinary bladder using [125I]neurokinin A as radioligand; Value ranges from 4.6-9.0 uM.
Assay [12] deals with T2, Neuromedin-K receptor. The experiment in a line: Binding affinity towards Tachykinin receptor 3 in guinea pig cerebral cortex using [3H]senktide as radioligand; Value ranges from 5.8-14u M. The format is tissue-based.
Assay [13] concerns the target T5, Gastrin/cholecystokinin type B receptor. As to the kind of experiment: Binding affinity towards CCK-B receptor in mouse cerebral cortex using [125I]Bolton-Hunter CCK-8 as radioligand; Value ranges from 7.8-9.3 uM. The format is tissue-based.
Assay [14] concerns the target T4, Cholecystokinin receptor type A. As to the kind of experiment: Binding affinity towards CCK-A receptor in rat pancreas using [125I]Bolton-Hunter CCK-8 as radioligand; Value ranges from 4.7-7.1 uM. Type of assay: tissue-based.
Assay [15] shares this target. As to the kind of experiment: Binding affinity towards CCK-A receptor in rat pancreas using [125I]Bolton-Hunter CCK-8 as radioligand; Value ranges from 3.3-5.4 uM. The format is tissue-based.
For assay [16], the target named is T5, Gastrin/cholecystokinin type B receptor. The experiment in a line: Binding affinity towards CCK-B receptor in mouse cerebral cortex using [125I]Bolton-Hunter CCK-8 as radioligand; Value ranges from 9.8-25 uM. Type of assay: tissue-based.
The target in assay [17] is T4, Cholecystokinin receptor type A. The experiment in a line: Binding affinity towards CCK-A receptor in rat pancreas using [125I]Bolton-Hunter CCK-8 as radioligand; Value ranges from 3.5-4.6 uM. The format is tissue-based.

pIC50: −log10 of the molar value.

Take `OC1CCN(Cc2ccccc2)C[C@@H]1Cc1c[nH]c2ccccc12` (stereo partly specified): the IC50 entry at Substance-K receptor [1] and on Substance-P receptor [3] was “Not Active” each time. For the same compound, the pIC50 on Neuromedin-K receptor [2] was 5.06.

For `O=C1CCN(C(=O)CCc2c[nH]c3ccccc23)CC1Cc1ccccc1` (stereo unspecified), at Substance-K receptor [4], the pIC50 was 5.16. For the same compound, the IC50 result at Substance-P receptor [3] and on Neuromedin-K receptor [5] was “Not Active” in each case.

Turning to `CC(C)(C)OC(=O)n1cc(CC2CN(Cc3ccccc3)CCC2O)c2ccccc21` (stereo unspecified), the IC50 entry (at Substance-K receptor [1]; at Substance-P receptor [3]; on Neuromedin-K receptor [5]; in assay [7]) was “Not Active” each time. This compound gave a pIC50 in assay [6] of 5.28.

Take `O=C1CCN(C(=O)OCc2ccccc2)CC1Cc1ccccc1` (stereo unspecified): the pIC50 at Substance-P receptor [8] was 5.09; in assay [9], 4.89. The IC50 result (at Substance-K receptor [1]; on Neuromedin-K receptor [5]; in assay [7]) was “Not Active” each time.

As to `O=C1CCN(Cc2ccccc2)CC1Cc1c[nH]c2ccccc12` (stereo unspecified), the pIC50 in assay [10] is 4.80; on Substance-K receptor [11], 5.17; on Neuromedin-K receptor [12] it was 5.00. Also, the IC50 result (on Substance-P receptor [3]; in assay [7]) was “Not Active” throughout.

Take `CCOP(=O)(OCC)OC1=CCN(Cc2ccccc2)CC1Cc1cn(C(=O)OC(C)(C)C)c2ccccc12` (stereo unspecified): the IC50 result on Substance-K receptor [1], on Substance-P receptor [3] and at Neuromedin-K receptor [5] was “Not Active” each time. Moreover, the figures for the pIC50 in assay [13] and in assay [14] were 5.07 and 5.26, respectively.

As for `O=C1[C@H](Cc2c[nH]c3ccccc23)CN(Cc2ccccc2)C[C@@H]1Cc1c[nH]c2ccccc12`, the IC50 result on Substance-K receptor [1], on Substance-P receptor [3] and on Neuromedin-K receptor [5] was “Not Active” throughout. For the same compound, the pIC50 was 5.39 in [15] and 4.82 in assay [16].

Regarding `O=C1C(Cc2c[nH]c3ccccc23)CN(Cc2ccccc2)C[C@@H]1Cc1c[nH]c2ccccc12` (stereo partly specified), the IC50 entry (on Substance-K receptor [1]; at Substance-P receptor [3]; on Neuromedin-K receptor [5]; in assay [7]) was “Not Active” in each case. Besides, in assay [17], the negative-log IC50 (pIC50) was 5.40.

The pIC50 is the negative decadic logarithm of the IC50, by convention in mol/L. Higher therefore signals a small IC50.
